Assays:
[1] = system: ds26 (DNA, duplex) CAATCGGATCGAATTCGATCCGATTG; test: competitive dialysis; settings: potassium phosphate buffer, 50 µM DNA, 1 µM ligand, 24 h, room temperature
[2] = system: HT24 (DNA, G4) TAGGGTTAGGGTTAGGGTTAGGGT; test: competitive dialysis; settings: potassium phosphate buffer; 50 µM DNA, 1 µM ligand, 24 h, room temperature
[3] = system: 24bcl (DNA, G4) CGGGCGCGGGAGGAAGGGGGCGGG; test: competitive dialysis; settings: potassium phosphate buffer; 50 µM DNA, 1 µM ligand, 24 h, room temperature
[4] = system: cmyc (DNA, G4) GGGGAGGGTGGGGAGGGTGGGGAAGGTGGGG; test: competitive dialysis; settings: potassium phosphate buffer; 50 µM DNA, 1 µM ligand, 24 h, room temperature
[5] = system: ds6 (DNA, duplex) CGATCG; test: fluorescence titration; settings: 185 mM KCl, 185 mM NaCl; pH 7, 25 °C; up to 25 µM DNA, 1 µM ligand; n.d., no change in fluorescence
[6] = system: Htel (DNA, G4) TTAGGG; test: imino proton NMR melting; settings: 150 mM KCl, 25 mM KH2PO4; 1 mM EDTA, pH 6.7; imino signals lost at 45-55 °C free, still observed at 55 °C bound
[7] = system: Htel (DNA, G4) TTAGGG; test: 1H NMR titration and NOESY; settings: 150 mM KCl, 25 mM KH2PO4, 1 mM EDTA, pH 6.7, 25 °C
[8] = system: Htel (DNA, G4) TTAGGG; test: fluorescence titration, Equispec fit; settings: 185 mM KCl, 185 mM NaCl; 6 mM Na2HPO4, 2 mM NaH2PO4, 1 mM EDTA, pH 7, 25 °C; macroscopic; 1 µM ligand
[9] = system: ds8 (DNA, duplex) GCGATCGC; test: 1H NMR titration; settings: 70 mM KCl, 10 mM KH2PO4; 0.2 mM EDTA, pH 7.0; line broadening only, no intermolecular NOE; ions stated for other duplexes
[10] = system: ds6 (DNA, duplex) CGATCG; test: 1H and 31P NMR titration; settings: 70 mM KCl, 10 mM KH2PO4; 0.2 mM EDTA, pH 7.0; [drug]/[DNA] up to 3

Row | binding [1] | binding [2] | binding [3] | binding [4] | binding [5] | binding [6] | Logarithm of the binding constants [8] | binding ([1]; NMR suggests outside binding) | binding [10] | SMILES | binding ([7]; site at T2, A3, G4) | binding [9] | binding ([7]; intercalates between A3 and G4)
1 | no | yes | yes | yes | no | yes | 4.4 ± 0.1 log (M-1) | – | – | CN1CCN(C(=O)c2ccc3c(NC4CCN(Cc5ccccc5)CC4)c4ccccc4nc3c2)CC1 | yes | – | –
2 | – | yes | yes | yes | no | yes | 4.9 ± 0.1 log (M-1) | yes | no | CN1CCN(C(=O)c2cccc3c(NCCc4c[nH]c5ccccc45)c4ccccc4nc23)CC1 | – | weak | yes
